Source: US20230066946A1, “1,5-DIPHENYLPYRAZOLYL-3-OXYALKYL ACIDS AND 1-PHENYL-5-THIENYLPYRAZOLYL-3-OXYALKYL ACIDS AND THE USE THEREOF FOR CONTROL OF UNWANTED PLANT GROWTH” (Bayer Aktiengesellschaft, priority 2019, published 2023)

What was measured:
[1] = test system: ALOMY; test: Pre-emergence herbicidal action against ALOMY; format: in vivo, Alopecurus myosuroides; conditions: scored visually after about 3 weeks vs untreated controls, 100% = plants have died, 0% = like control plants
Source text: (§1) Seeds of mono- and dicotyledonous weed plants are placed in plastic pots in sandy loam soil (doubly sown with one species each of mono- or dicotyledonous weed plants per pot) and covered with soil. The compounds of the invention, formulated in the form of wettable powders (WP) or as emulsion concentrates (EC), are then applied onto the surface of the covering soil as aqueous suspension or emulsion with addition of 0.5% additive at a water application rate equivalent to 600 litres per hectare. After the treatment, the pots are placed in a greenhouse and kept under good growth conditions for the trial plants. After about 3 weeks, the effect of the preparations is scored visually in comparison with untreated controls as percentages. For example, 100% activity=the plants have died, 0% activity=like control plants. [table] Tables 4.1-4.15 below show the effects of selected compounds of the general formula (I) according to Tables 1 to 3 on various harmful plants at an application rate corresponding to 1280 or 320 g/ha, which have been obtained by the aforementioned experimental method.

[2] = test system: harmful plants; test: Pre-emergence herbicidal action, summary of Tables 4.1-4.15; format: in vivo; conditions: result in words
Source text: as §1, with “plants.” for “plants. [table] Tables 4.1-4.15 below show the effects of selected compounds of the general formula (I) according to Tables 1 to 3 on various harmful plants at an application rate corresponding to 1280 or 320 g/ha, which have been obtained by the aforementioned experimental method.”
Tables 4.1-4.15 below show the effects of selected compounds of the general formula (I) according to Tables 1 to 3 on various harmful plants at an application rate corresponding to 1280 or 320 g/ha, which have been obtained by the aforementioned experimental method.
For example, compounds no. I-008, I-056, I-057, I-061, I-067, I-070 and I-072 applied by the pre-emergence method have very good action (80% to 100% herbicidal action) against harmful plants such as Alopecurus myosuroides, Amaranthus retroflexus, Matricaria inodora, Polygonum convolvulus, Setaria viridis and Stellaria media at an application rate of 1.28 kg of active substance or less per hectare.

[3] = test system: PHBPU; test: Post-emergence herbicidal action against PHBPU; format: in vivo, Pharbitis purpurea; conditions: 320 g/ha, visual rating about 3 weeks after treatment
Outline: (§2)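 Greenhouse, sandy loam, one-leaf stage; compound as WP/EC at 1280 or 320 g/ha plus 0.5% additive (600 L/ha). Visual % activity at ~3 weeks relative to untreated plants.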

[4] = test system: ECHCG; test: Post-emergence herbicidal action against ECHCG; format: in vivo, Echinochloa crus-galli; conditions: 1280 g/ha, post-emergence at one-leaf stage, rated visually after about 3 weeks vs untreated controls
Outline: as §2

[5] = test system: ALOMY; test: Post-emergence herbicidal action against ALOMY; format: in vivo, Alopecurus myosuroides; conditions: 1280 g/ha, post-emergence at one-leaf stage, rated visually after about 3 weeks vs untreated controls
Method: (§3) [table] Seeds of mono- and dicotyledonous weed plants are placed in plastic pots in sandy loam soil (twin sowing with one species each of mono- or dicotyledonous weed plants per pot), covered with soil and cultivated in a greenhouse under controlled growth conditions. 2 to 3 weeks after sowing, the test plants are treated at the one-leaf stage. The compounds of the invention, formulated in the form of wettable powders (WP) or as emulsion concentrates (EC), are applied to the green parts of the plants as aqueous suspension or emulsion with addition of 0.5% additive at a water application rate equivalent to 600 litres per hectare. After the test plants have been kept in the greenhouse under optimum growth conditions for about 3 weeks, the activity of the preparations is rated visually in comparison to untreated controls. For example, 100% activity=the plants have died, 0% activity=like control plants. Tables 5.1-5.16 below show the effects of selected compounds of the general formula (I) according to Tables 1 to 3 on various harmful plants at an application rate corresponding to 1280 or 320 g/ha, which have been obtained by the aforementioned experimental method.

[6] = test system: VERPE; test: Pre-emergence herbicidal action against VERPE; format: in vivo, Veronica persica; conditions: 320 g/ha, scored visually after about 3 weeks vs untreated controls
Outline: (§4)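 Pre-emergence, sandy loam, pots doubly sown. WP/EC formulations + 0.5% additive, 600 L/ha water, sprayed on soil surface; 1280 or 320 g/ha. Greenhouse ~3 wk; visual % effect vs untreated.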

[7] = test system: SETVI; test: Post-emergence herbicidal action against SETVI; format: in vivo, Setaria viridis; conditions: 1280 g/ha, post-emergence at one-leaf stage, rated visually after about 3 weeks vs untreated controls
Outline: as §2

[8] = test system: harmful plants; test: Post-emergence herbicidal action, summary of Tables 5.1-5.16; format: in vivo; conditions: result in words
Method: as §3, with “Seeds” for “[table] Seeds”, “method. As the results from Tables 5.1-5.16 show, compounds of the invention have good herbicidal post-emergence efficacy against a broad spectrum of weed grasses and weeds. […] For example, compounds Nos. I-002, I-006, I-022, I-056 and I-072 applied by the post-emergence method have very good herbicidal action (80% to 100% herbicidal action) against harmful plants such as Alopecurus myosuroides, Amaranthus retroflexus, Matricaria inodora, Setaria viridis, Pharbitis purpurea and Stellaria media at an application rate of 1.28 kg of active substance or less per hectare.” for “method.”

[9] = test system: AMARE; test: Pre-emergence herbicidal action against AMARE; format: in vivo, Amaranthus retroflexus; conditions: scored visually after about 3 weeks vs untreated controls; for Pre-emergence action at 320 g/ha against AMARE in %: 100% = plants have died, 0% = like control plants; for Pre-emergence action against AMARE in %: 1280 g/ha
Outline: as §4

[10] = test system: MATIN; test: Pre-emergence herbicidal action against MATIN; format: in vivo, Matricaria inodora; conditions: 1280 g/ha, scored visually after about 3 weeks vs untreated controls
Source text: as §1

[11] = test system: VERPE; test: Post-emergence herbicidal action against VERPE; format: in vivo, Veronica persica; conditions: 320 g/ha, visual rating about 3 weeks after treatment
Outline: as §2

[12] = test system: MATIN; test: Post-emergence herbicidal action against MATIN; format: in vivo, Matricaria inodora; conditions: visual rating about 3 weeks after treatment
Outline: as §2

[13] = test system: STEME; test: Pre-emergence herbicidal action against STEME; format: in vivo, Stellaria media; conditions: scored visually after about 3 weeks vs untreated controls
Outline: as §4

[14] = test system: AMARE; test: Post-emergence herbicidal action against AMARE; format: in vivo, Amaranthus retroflexus; conditions: visual rating about 3 weeks after treatment
Outline: as §2

[15] = test system: STEME; test: Post-emergence herbicidal action against STEME; format: in vivo, Stellaria media; conditions: visual rating about 3 weeks after treatment
Outline: as §2

[16] = test system: CYPES; test: Pre-emergence herbicidal action against CYPES; format: in vivo, Cyperus esculentus; conditions: scored visually after about 3 weeks vs untreated controls, 100% = plants have died, 0% = like control plants
Source text: as §1

[17] = test system: POLCO; test: Post-emergence herbicidal action against POLCO; format: in vivo, Polygonum convolvulus; conditions: 320 g/ha, visual rating about 3 weeks after treatment
Outline: as §2

[18] = test system: POLCO; test: Pre-emergence herbicidal action against POLCO; format: in vivo, Polygonum convolvulus; conditions: 320 g/ha, scored visually after about 3 weeks vs untreated controls
Outline: as §4

[19] = test system: SETVI; test: Pre-emergence herbicidal action against SETVI; format: in vivo, Setaria viridis; conditions: 1280 g/ha, scored visually after about 3 weeks vs untreated controls
Outline: as §4

[20] = test system: VIOTR; test: Pre-emergence herbicidal action against VIOTR; format: in vivo, Viola tricolor; conditions: 1280 g/ha, scored visually after about 3 weeks vs untreated controls
Source text: as §1

[21] = test system: VIOTR; test: Post-emergence herbicidal action against VIOTR; format: in vivo, Viola tricolor; conditions: 320 g/ha, visual rating about 3 weeks after treatment
Outline: as §2

[22] = test system: ECHCG; test: Pre-emergence herbicidal action against ECHCG; format: in vivo, Echinochloa crus-galli; conditions: scored visually after about 3 weeks vs untreated controls, 100% = plants have died, 0% = like control plants
Outline: as §4

SMILES | Pre-emergence action at 1280 g/ha against ALOMY in % [1] [%] | herbicidal efficacy against harmful plants in the case of pre-emergence treatment [2] | Post-emergence action against PHBPU in % [3] [%] | Post-emergence action against ECHCG in % [4] [%] | Post-emergence action against ALOMY in % [5] [%] | Pre-emergence action against VERPE in % [6] [%] | Post-emergence action against SETVI in % [7] [%] | herbicidal efficacy against harmful plants when applied post-emergence [8] | Pre-emergence action at 320 g/ha against AMARE in % [9] [%] | Pre-emergence action against AMARE in % [9] [%] | Pre-emergence action against MATIN in % [10] [%] | Post-emergence action against VERPE in % [11] [%] | Post-emergence action against MATIN in % ([12]; 1280 g/ha) [%] | Pre-emergence action against STEME in % ([13]; 320 g/ha) [%] | Pre-emergence action against STEME in % ([13]; 1280 g/ha) [%] | Post-emergence action against AMARE in % ([14]; 320 g/ha) [%] | Post-emergence action against AMARE in % ([14]; 1280 g/ha) [%] | Post-emergence action against STEME in % ([15]; 320 g/ha) [%] | Post-emergence action against STEME in % ([15]; 1280 g/ha) [%] | Pre-emergence action at 1280 g/ha against CYPES in % [16] [%] | further results
COC(=O)COc1nn(-c2ccccc2)c(-c2cccc(F)c2)c1Cl [I-002] | 80 | good herbicidal efficacy | 80 | 80 | 80 | 100 | 80 | very good herbicidal efficacy | 100 | 100 | 100 | 80 | 80 | 80 | 100 | 80 | 90 | 80 | 90 | – | –
COC(=O)COc1nn(-c2ccc(F)cc2)c(-c2ccc(F)cc2)c1Cl [I-006] | – | – | 80 | – | 80 | – | 90 | very good herbicidal efficacy | 80 | 100 | – | – | 80 | – | 100 | – | 100 | – | 80 | 100 | –
COC(=O)COc1nn(-c2ccc(Cl)cc2)c(-c2ccc(F)cc2)c1Cl [I-007] | 80 | – | – | – | – | – | – | – | 80 | 100 | – | 90 | – | – | 90 | – | 80 | – | – | – | –
COC(=O)COc1nn(-c2ccccc2)c(-c2ccc(F)cc2)c1Cl [I-008] | 100 | good herbicidal efficacy | – | – | – | 90 | – | – | 100 | 100 | 90 | 90 | 90 | – | 100 | 80 | 80 | 90 | 90 | – | Post-emergence action against POLCO in % [17]: 80%; Pre-emergence action against POLCO in % [18]: 80%; Pre-emergence action against SETVI in % [19]: 90%; Post-emergence action against MATIN in % ([12]; 320 g/ha): 90%
COC(=O)COc1nn(-c2ccccc2)c(-c2cccc(F)c2)c1C#N [I-021] | – | good herbicidal efficacy | 80 | 80 | 80 | 90 | – | very good herbicidal efficacy | 100 | 100 | 90 | – | 80 | – | 90 | 80 | 80 | 80 | 80 | 100 | Pre-emergence action against VIOTR in % [20]: 90%
COC(=O)COc1nn(-c2ccccc2F)c(-c2ccccc2)c1Br [I-054] | – | – | 100 | 90 | – | 100 | 100 | very good herbicidal efficacy | 100 | 100 | – | 80 | 100 | 100 | 100 | 90 | 100 | 90 | 100 | – | Post-emergence action against POLCO in % [17]: 80%; Post-emergence action against VIOTR in % [21]: 90%; Pre-emergence action against POLCO in % [18]: 100%; Pre-emergence action at 1280 g/ha against ECHCG in % [22]: 90%; Pre-emergence action against SETVI in % [19]: 90%; Post-emergence action against MATIN in % ([12]; 320 g/ha): 90%
